Patent US5472958A, “2-((nitro)phenoxymethyl) heterocyclic compounds that enhance cognitive function” (Abbott Laboratories, priority 1994, dated 1995)
pKi: −log10 of the molar value. Where a name gives a salt, the structure may show the parent alone. Read-outs that look alike come from different tables or passages of the source.

Key:
[1] = target: neuronal nicotinic cholinergic channel receptor; assay: [3H]-cytisine binding to neuronal nicotinic cholinergic channel receptors, crude synaptic membranes from whole rat brain
Method: Binding of [^3 H]-cytisine ([^3 H]-CYT) to nicotinic receptors was accomplished using crude synaptic membrane preparations from whole rat brain (Pabreza et al., Molecular Pharmacol., 1990, 39:9). Washed membranes were stored at -80° C. prior to use. Frozen aliquots were slowly thawed and resuspended in 20 volumes of buffer (containing: 120 mM NaCl, 5 mM KCl, 2 mM MgCl2, 2 mM CaCl2 and 50 mM Tris-Cl, pH 7.4 @4° C.). After centrifuging at 20,000×g for 15 minutes, the pellets were resuspended in 30 volumes of buffer. Homogenate (containing 125-150 μg protein) was added to triplicate tubes containing concentrations of test compound and [^3 H]-CYT (1.25 nM) in a final volume of 500 μL. Samples were incubated for 60 minutes at 4° C., then rapidly filtered through Whatman GF/B filters presoaked in 0.5% polyethylimine using 3×4 mL of ice-cold buffer. The filters are counted in 4 mL of Ecolume® (ICN).

Male CD-1 mice = assay: Analgesia testing, automated hot-plate (55° C.); assay type: in vivo, mouse; settings: latency to tenth jump; morphine at 12, Example 3 at 19 umol/kg
Method: Analgesia was measured using an automated hot-plate analgesia monitor (model #AHP16AN, Omnitech Electronics, Inc., Columbus, Ohio). The temperature of the hot-plate was maintained at 55° C. Male CD-1 mice (Charles River, Portage, Mich.) weighing 30 to 35 g were used for all testing. Mice were placed on the hot-plate and the latency to jump (i.e., first 10 jumps) was recorded. Mice were removed from the apparatus either after ten jumps were made or a maximally-allowed time of 240 sec elapsed, whichever occurred first. The design of the apparatus allowed for testing of several animals (e.g., 8) at once. The latency (sec) until the tenth jump was used for statistical analysis. Data (Table 2) were statistically evaluated with ANOVA (StatView II™ program, Abacus Concepts, Inc., Berkeley, Calif.) and compared to the reference standard analgesic morphine.

parietotemporal cortex = parietotemporal cortex of humans; cited from earlier work
[2] = system: cardiac muscarinic receptors; settings: cited from earlier work
[3] = system: cortical muscarinic receptors; settings: cited from earlier work
[4] = cited from earlier work
nicotinic receptors = settings: chronic nicotine administration; cited from earlier work
rats = settings: acutely- and chronically-administered, rats incl. aged; cited from earlier work
cigarette smokers = settings: double-blind studies; cited from earlier work
[5] = in vivo; cited from earlier work
CD1 mice = assay: Elevated plus-maze, mouse (anxiolytic activity); assay type: in vivo; settings: for Mouse EPM, improvement in performance at the dose range tested: doses in brackets, time in open arms, 5 min test
Source text: (§1) The elevated plus-maze is a conflict test that probes anxiolytic activity of test compounds (Lister, Psychopharmacology, 1987, 92:180). It is based on the fact that exposure of an animal to an elevated open arm leads to an avoidance response considerably stronger than that evoked by exposure to an enclosed arm.
The apparatus required to perform this test in mice is made of plywood and consists of two open arms (17×8 cm) and two enclosed arms (17×8×15 cm) extending from a central platform (8×8 cm). It is mounted on a plywood base rising 39 cm above the floor. Mice are released on the central platform and the time spent in the open and enclosed arms is recorded during a 5 minute test period. The test compounds were administered to CD1 mice 15 minutes before the test.

male Wistar rats = assay: Elevated plus-maze, rat (anxiolytic activity); assay type: in vivo; settings: doses in brackets; time in open arms
Source text: as §1
The same protocol was applied in rats (male Wistar strain), but a larger maze was used (open arms 50×10 cm, enclosed arms 50×10×40 cm) raised 50 cm above the floor.

[6] = [3H]-cytisine (1.25 nM), whole rat brain membranes, 4° C., 60 min

Row | SMILES | pKi [1, 6] | further results
1 | CN1CCC[C@H]1COc1cccc(C#N)c1 [Example 19, (S)-2-(3-cyanophenoxymethyl)-1-methylpyrrolidine hydrochloride] | 7.19 | 
2 | CN1CCC[C@H]1COc1ccc(Cl)c(Cl)c1 [Example 16, 2(S)-(3,4-Dichlorophenoxymethyl)-1-methylpyrrolidine hydrochloride] | 6.95 | 
3 | Fc1ccc(OC[C@@H]2CCCN2)cc1F [Example 13, 2(S)-(3,4-Difluorophenoxymethyl)pyrrolidine hydrochloride] | 7.76 | 
4 | CN1CC[C@]23c4c5ccc(O)c4O[C@H]2[C@@H](O)C=C[C@H]3[C@H]1C5 [Morphine, reference compound] |  | Percent change from saline (Male CD-1 mice): 257%
5 | CN1CC[C@@H]1COc1cccc([N+](=O)[O-])c1 [Example 23, (R)-1-methyl-2-(3-(nitro)phenoxymethyl)azetidine hydrochloride] | 7.54 | 
6 | Fc1cccc(OC[C@H]2CCCN2)c1 [Example 9, 2(R)-(3-Fluorophenoxymethyl)-pyrrolidine hydrochloride] | 7.94 | 
7 | CN1CCC[C@H]1COc1cccc(F)c1 [Example 6, 2(S)-(3-Fluorophenoxymethyl)-1-methyl-pyrrolidine hydrochloride] | 8.29 | 
8 | CNC1(C)C2CCC(C2)C1(C)C (stereo not drawn) [mecamylamine] |  | Effect on resting cortical perfusion (parietotemporal cortex): reduces resting cortical perfusion
9 | Fc1cccc(OC[C@@H]2CCCN2)c1F [Example 11, 2(S)-(2,3-Difluorophenoxymethyl)pyrrolidine hydrochloride] | 7.13 | 
10 | CN1CCC[C@H]1COc1cc(F)cc(F)c1 [Example 8, 2(S)-(3,5-Difluorophenoxymethyl)-1-methyl-pyrrolidine hydrochloride] | 7.80 | 
11 | Cl.O=[N+]([O-])c1cccc(OC[C@H]2CCCN2)c1 [Example 3, 2(R)-(3-(nitro)phenoxymethyl)pyrrolidine hydrochloride] | 8.60 | Percent change from saline (Male CD-1 mice): 60.7%
12 | CN1CCC[C@@H]1COc1cccc(F)c1 [Example 10, 2(R)-(3-Fluorophenoxymethyl)-1-methylpyrrolidine hydrochloride] | 7.04 | 
13 | CN1CCC[C@H]1COc1cccc([N+](=O)[O-])c1 [Example 2, 1-Methyl-2(S)-(3-(nitro)phenoxymethyl)pyrrolidine hydrochloride] | 8.05 | 
14 | CCN1C(=O)CC2(CCN(C)CC2)C1=O [RS-86] |  | Agonism at cardiac muscarinic receptors [2]: full agonist; Agonism at cortical muscarinic receptors [3]: partial agonist; Potency and selectivity for CNS receptors [3]: poor potency and lack of selectivity for CNS receptors
15 | CN1CCC[C@H]1COc1ccc(F)c(F)c1 [Example 14, 2(S)-(3,4-Difluorophenoxymethyl)-1-methylpyrrolidine hydrochloride] | 7.74 | 
16 | CN1CCC[C@H]1COc1cccc(F)c1F [Example 12, 2(S)-(2,3-Difluorophenoxymethyl)-1-methylpyrrolidine hydrochloride] | 7.09 | 
17 | CN1CCC[C@H]1c1cccnc1 [nicotine] |  | Oral bioavailability [4]: poor oral bioavailability; Up-regulation of the number of receptors (nicotinic receptors): 50-100%; Effect on cognitive function (rats): enhances cognitive function in rats; Suppressing or preventing signs and symptoms of withdrawal vs placebo (cigarette smokers): far superior to a placebo; Anxiolytic properties [5]: anxiolytic properties
18 | O=[N+]([O-])c1cccc(OC[C@@H]2CCN2)c1 [Example 22, 2(S)-(3-(nitro)phenoxymethyl)azetidine methanesulfonate] | 8.17 | 
19 | CN1CCCC1c1cccnc1 (single isomer, unassigned; (-)) [(-)-nicotine, reference compound] |  | pKi [1]: […]; Increase in time spent in the open arms of the maze vs saline (CD1 mice; 0.62 and 1.9 μmol/kg, p<0.05, 15 minutes before test): significant increase; Mouse EPM, improvement in performance at the dose range tested (CD1 mice): significant [0.19-0.62]; Rat EPM, improvement in performance at the dose range tested (male Wistar rats): significant [1.9]
20 | Fc1cccc(OC[C@@H]2CCCN2)c1 [Example 5, 2(S)-(3-Fluorophenoxymethyl)-pyrrolidine hydrochloride] | 7.76 | 
21 | CN1CCC[C@H]1COc1cccc(Cl)c1 [Example 15, 2(S)-(3-Chlorophenoxymethyl)-1-methylpyrrolidine hydrochloride] | 7.42 | 
22 | CC(=O)Nc1cccc(OC[C@@H]2CCCN2)c1 [Example 17, (S)-2-(3-(acetamido)phenoxymethyl)pyrrolidine hydrochloride] | 6.85 | 
23 | Fc1cc(F)cc(OC[C@@H]2CCCN2)c1 [Example 7, 2(S)-(3,5-Difluorophenoxymethyl)pyrrolidine hydrochloride] | 7.65 | 
24 | Cl.O=[N+]([O-])c1cccc(OC[C@@H]2CCCN2)c1 [Example 1, 2(S)-(3-(Nitro)phenoxymethyl)pyrrolidine hydrochloride] | 8.54 | Mouse EPM, improvement in performance at the dose range tested (CD1 mice): significant [0.62-1.9]; Rat EPM, improvement in performance at the dose range tested (male Wistar rats): significant [0.19, 6.2]
25 | N#Cc1cccc(OC[C@@H]2CCCN2)c1 [Example 18, (S)-2-(3-cyanophenoxymethyl)pyrrolidine hydrochloride] | 7.74 | 
26 | CN1CCC[C@@H]1COc1cccc([N+](=O)[O-])c1 [Example 4, (R)-1-Methyl-2-(3-(nitro)phenoxymethyl)pyrrolidine] | 6.88 | 
27 | c1ccc(OC[C@@H]2CCCN2)cc1 [Example 21, 2(S)-(phenoxymethyl)pyrrolidine hydrochloride] | 6.97 | 
